Measured values reported in ChEMBL document CHEMBL1201862, “PubChem BioAssay data set” (2004).
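Five compound concentrations were applied to cells in 96-well plates for 48 hours; endpoints were derived by simple linear interpolation of the resulting dose-response curve. The concentration for 50% growth inhibition is given as GI50.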 The source made the active and inactive calls. No stated cut-off is given here; in the data, active = GI50 up to about 1.1 µM and inactive = higher.

Legend:
Assay in all cases: DTP human tumour cell line panel, 48 h
ACHN = system: ACHN
CAKI-1 = system: CAKI-1
HCT-15 = system: HCT-15
HT-29 = system: HT-29
M14 = system: M14
MCF7 = system: MCF7
MDA-N = system: MDA-N
NCI-H226 = system: NCI-H226
NCI-H23 = system: NCI-H23
NCI-H522 = system: NCI-H522
OVCAR-3 = system: OVCAR-3
OVCAR-4 = system: OVCAR-4
OVCAR-5 = system: OVCAR-5
SF-539 = system: SF-539
SK-MEL-28 = system: SK-MEL-28
SK-MEL-2 = system: SK-MEL-2
SK-OV-3 = system: SK-OV-3
SNB-75 = system: SNB-75
SR = system: SR
TK-10 = system: TK-10

SMILES	GI50 (ACHN)	GI50 (CAKI-1)	GI50 (HCT-15) [µM]	GI50 (HT-29)	GI50 (M14)	GI50 (MCF7)	GI50 (MDA-N)	GI50 (NCI-H226)	GI50 (NCI-H23)	GI50 (NCI-H522)	GI50 (OVCAR-3)	GI50 (OVCAR-4)	GI50 (OVCAR-5)	GI50 (SF-539)	GI50 (SK-MEL-28)	GI50 (SK-MEL-2)	GI50 (SK-OV-3)	GI50 (SNB-75)	GI50 (SR)	GI50 (TK-10)
NC(=O)NC1NC(=O)NC1=O (centres undefined) [ALLANTOIN]	> 100 µM (inactive)	> 100 µM (inactive)	> 100	> 100 µM (inactive)	> 100 µM (inactive)	> 100 µM (inactive)	> 100 µM (inactive)	> 100 µM (inactive)	> 100 µM (inactive)	> 100 µM (inactive)	> 100 µM (inactive)	> 100 µM (inactive)	> 100 µM (inactive)	> 100 µM (inactive)	> 100 µM (inactive)	> 100 µM (inactive)	> 100 µM (inactive)	> 100 µM (inactive)	> 100 µM (inactive)	> 100 µM (inactive)
O=P(O)(CCP(=O)(O)c1ccccc1)c1ccccc1	> 100 µM (inactive)	> 100 µM (inactive)	> 100	> 100 µM (inactive)	> 100 µM (inactive)	> 100 µM (inactive)	> 100 µM (inactive)	> 100 µM (inactive)	> 100 µM (inactive)	> 100 µM (inactive)	> 100 µM (inactive)	> 100 µM (inactive)	> 100 µM (inactive)	> 100 µM (inactive)	> 100 µM (inactive)	> 100 µM (inactive)	> 100 µM (inactive)	> 100 µM (inactive)	> 100 µM (inactive)	> 100 µM (inactive)
Cc1ccc2nc(/C=N/c3ccccc3Cl)cc(C)c2c1	30.7 µM (inactive)	30.8 µM (inactive)	18.4	18.4 µM (inactive)	13.2 µM (inactive)	17.5 µM (inactive)	5.57 µM (inactive)	20.6 µM (inactive)	22.2 µM (inactive)	20 µM (inactive)	17.5 µM (inactive)	34 µM (inactive)	42.3 µM (inactive)	16.5 µM (inactive)	18.9 µM (inactive)	40.2 µM (inactive)	27.4 µM (inactive)	19.9 µM (inactive)	2.81 µM (inactive)	30.3 µM (inactive)
CC(=O)SC(C[N+](=O)[O-])c1ccccc1 (centres undefined)	3.66 µM (inactive)	14 µM (inactive)	2.21	2.06 µM (inactive)	3.84 µM (inactive)	1.74 µM (inactive)	2.32 µM (inactive)	2.59 µM (inactive)	12 µM (inactive)	16.4 µM (inactive)	5.37 µM (inactive)	1.76 µM (inactive)	3.8 µM (inactive)	2.27 µM (inactive)	5.55 µM (inactive)	19.8 µM (inactive)	13.3 µM (inactive)	2.29 µM (inactive)	2.22 µM (inactive)	7.26 µM (inactive)
O=C(/C=C/c1ccc(-c2ccccc2)cc1)NCc1ccc(C(=O)NCCc2ccccc2)cc1	> 100 µM (inactive)	> 100 µM (inactive)	> 100	28.1 µM (inactive)	> 100 µM (inactive)	25.4 µM (inactive)	> 100 µM (inactive)	> 100 µM (inactive)	> 100 µM (inactive)	> 100 µM (inactive)	> 100 µM (inactive)	> 100 µM (inactive)	> 100 µM (inactive)	12.3 µM (inactive)	> 100 µM (inactive)	> 100 µM (inactive)	> 100 µM (inactive)	49.3 µM (inactive)	44.8 µM (inactive)	> 100 µM (inactive)
O=C1c2ccccc2-c2nc(-c3cccc([N+](=O)[O-])c3)nnc21	3.98 µM (inactive)	4.24 µM (inactive)	15.7	1.82 µM (inactive)	23 µM (inactive)	11.4 µM (inactive)	2.54 µM (inactive)	7.91 µM (inactive)	17.6 µM (inactive)	26.5 µM (inactive)		15.4 µM (inactive)	20.1 µM (inactive)	22.6 µM (inactive)		18.9 µM (inactive)	> 100 µM (inactive)	21.4 µM (inactive)	1.11 µM (active)	18.7 µM (inactive)
CS(=O)(=O)N1CC(CCl)c2ccc([N+](=O)[O-])cc21 (centres undefined)	> 100 µM (inactive)	> 100 µM (inactive)	> 100	> 100 µM (inactive)	> 100 µM (inactive)	> 100 µM (inactive)	> 100 µM (inactive)	> 100 µM (inactive)	> 100 µM (inactive)	> 100 µM (inactive)	> 100 µM (inactive)	> 100 µM (inactive)	> 100 µM (inactive)	> 100 µM (inactive)	> 100 µM (inactive)	> 100 µM (inactive)	> 100 µM (inactive)	< 0.01 µM (active)	> 100 µM (inactive)	> 100 µM (inactive)
COC(=O)c1cc(C#Cc2cc(OC)ccc2OC)ccc1OC	42.7 µM (inactive)	60 µM (inactive)	40.3	38.5 µM (inactive)	34.8 µM (inactive)	36.5 µM (inactive)	30.3 µM (inactive)	67 µM (inactive)	41.4 µM (inactive)	37.8 µM (inactive)		46.7 µM (inactive)	> 100 µM (inactive)		> 100 µM (inactive)	43.5 µM (inactive)	45.4 µM (inactive)	33.8 µM (inactive)	26.8 µM (inactive)	54.6 µM (inactive)
CC(C)CNC(=O)Cn1c(-c2ccccc2)cc2ccccc21	> 100 µM (inactive)	> 100 µM (inactive)	> 100	> 100 µM (inactive)	> 100 µM (inactive)	> 100 µM (inactive)	> 100 µM (inactive)	> 100 µM (inactive)	> 100 µM (inactive)	68.1 µM (inactive)	> 100 µM (inactive)	> 100 µM (inactive)	> 100 µM (inactive)	> 100 µM (inactive)	> 100 µM (inactive)	> 100 µM (inactive)	> 100 µM (inactive)	> 100 µM (inactive)	> 100 µM (inactive)	> 100 µM (inactive)
CN(C)C(=O)Nc1cc2c3c(c1)CCCN3CCC2	> 10 µM (inactive)	> 10 µM (inactive)	> 10	> 10 µM (inactive)	> 10 µM (inactive)	> 10 µM (inactive)	> 10 µM (inactive)	> 10 µM (inactive)	> 10 µM (inactive)	> 10 µM (inactive)	> 10 µM (inactive)	> 10 µM (inactive)		> 10 µM (inactive)	> 10 µM (inactive)	> 10 µM (inactive)	> 10 µM (inactive)	> 10 µM (inactive)	> 10 µM (inactive)	> 10 µM (inactive)
COC1OC2COC1(OCc1ccccc1)C1OC(C)(C)OC21 (centres undefined)	> 100 µM (inactive)	> 100 µM (inactive)	> 100	> 100 µM (inactive)	> 100 µM (inactive)	> 100 µM (inactive)	> 100 µM (inactive)	> 100 µM (inactive)	> 100 µM (inactive)	> 100 µM (inactive)	> 100 µM (inactive)	> 100 µM (inactive)	> 100 µM (inactive)		> 100 µM (inactive)	> 100 µM (inactive)	> 100 µM (inactive)	> 100 µM (inactive)	> 100 µM (inactive)	> 100 µM (inactive)
CNC(=O)NCCN1CC2CCC(CC2)C1	> 10 µM (inactive)	> 10 µM (inactive)	> 10	> 10 µM (inactive)	> 10 µM (inactive)	> 10 µM (inactive)	> 10 µM (inactive)	> 10 µM (inactive)	> 10 µM (inactive)	> 10 µM (inactive)	> 10 µM (inactive)	> 10 µM (inactive)		> 10 µM (inactive)	> 10 µM (inactive)	> 10 µM (inactive)	> 10 µM (inactive)	> 10 µM (inactive)	> 10 µM (inactive)	> 10 µM (inactive)
O=C1C=C(c2ccccc2)O/C1=C\C(=O)c1ccc(Cl)cc1	16.1 µM (inactive)	18.1 µM (inactive)	17.5	3.58 µM (inactive)	19.6 µM (inactive)	17.3 µM (inactive)	23.6 µM (inactive)	17.4 µM (inactive)	25.5 µM (inactive)	20.7 µM (inactive)	22.1 µM (inactive)	21.9 µM (inactive)	24.3 µM (inactive)	57.7 µM (inactive)	19.9 µM (inactive)		98.4 µM (inactive)	4.84 µM (inactive)	11.3 µM (inactive)	20.1 µM (inactive)
COc1cc(OC)c(-n2[nH]c(=O)n(C)c2=O)c(OC)c1		> 100 µM (inactive)	> 100	> 100 µM (inactive)	> 100 µM (inactive)	> 100 µM (inactive)	> 100 µM (inactive)	> 100 µM (inactive)	> 100 µM (inactive)	49.7 µM (inactive)	> 100 µM (inactive)	> 100 µM (inactive)	> 100 µM (inactive)	> 100 µM (inactive)	> 100 µM (inactive)	> 100 µM (inactive)	> 100 µM (inactive)	> 100 µM (inactive)	> 100 µM (inactive)	> 100 µM (inactive)
COc1ccc(/C=N/NC(=O)C2=C(N)N(c3ccccc3)C(=C(C#N)C#N)S2)cc1	> 100 µM (inactive)		> 100	> 100 µM (inactive)	> 100 µM (inactive)	> 100 µM (inactive)	> 100 µM (inactive)	> 100 µM (inactive)	> 100 µM (inactive)	> 100 µM (inactive)	60.4 µM (inactive)	> 100 µM (inactive)	> 100 µM (inactive)	48.1 µM (inactive)	> 100 µM (inactive)		57 µM (inactive)	16 µM (inactive)	> 100 µM (inactive)	> 100 µM (inactive)
